# In PMC8391421, “Identification of Novel Positive Allosteric Modulators of Neurotrophin Receptors for the Treatment of Cognitive Dysfunction” (Cells, 2021):
# Legend:
# TrkA = target: T1, TrkA (Homo sapiens, UniProt P04629); assay: TrkA PathHunter cell-based assay (U2OS-TrkA/p75)
# T1 construct: host or cells: U2OS (human osteosarcoma), co-expressing p75 and SHC-1 fused to the enzyme acceptor
# Method: U2OS cells were maintained subconfluent in EMEM supplemented with 10% FBS and penicillin/streptomycin/hygromycin and G418. One day prior to the experiment, 5000 cells of EMEM supplemented with 0.5% horse serum were seeded in each well of a 384-well white plate. The assay was performed as previously described. Briefly, the TrkA or TrkB cell-based PathHunter® assays use enzyme fragment complementation (EFC) technology for the complementation of two β-galactosidase (β-gal) fragments in order to study protein–protein interactions. Upon activation with ligand, TrkA or TrkB are phosphorylated on several tyrosine residues, including tyrosine 490, leading to an interaction with SHC-1. In the PathHunter® assays, the Trk-receptors are fused to an enzyme donor tag, and SHC-1 is fused to a larger part of β-gal called an enzyme acceptor. The interactions between the recombinant enzyme donor, i.e., the Trk-receptor, with an enzyme acceptor, i.e., SHC-1, leads to an active β-gal enzyme. The functional (complemented) β-gal will hydrolyze a substrate to generate a luminescence signal. The generated luminescence was read using an EnVision plate reader from PerkinElmer, Upplands Väsby, Sweden, or an ID5 plate reader from Molecular Devices, Berkshire, RG41 5TS UK. […] Min- and Max-control wells were included on each plate.
# Both Toltrazuril and Ponazuril are registered veterinary products prescribed for parasitic infections in animals. […] The activation of Trk-receptors leads to an intracellular interaction between the Trk-receptor and SHC-1 and thereby to the complementation of β-gal, which will render in a functional enzyme. β-gal will hydrolyze a substrate to generate luminescence, which is proportional to the number of activated receptors.
# Wistar rats = assay: Novel object recognition; assay type: in vivo, rat; details: 1 mg/kg
# Method: The novel object recognition model was conducted by Suven Life Sciences Ltd. (Hyderabad, India) using male Wistar rats (n = 12/group). This study was performed in compliance with the requirements and in-house animal care and usage policy of the Institutional Animal Ethics Committee (IAEC). The experiment was conducted over a 5-day period. For the first 3 days, ACD855 or vehicle were administered to the animals. On Day 4, the rats were acclimatized to their respective arenas for 20 min and then returned to their home cages for the administration of ACD855 or vehicle (1 h post habituation phase). On Day 5, the rats were administered vehicle or ACD855 1 h prior to trial, donepezil (1 mg/kg) was injected 30 min prior to trial, and scopolamine (1 mg/kg) was injected 20 min prior to trial. 20 min after scopolamine administration, the rats were subjected to the familiarization phase. The experiment was performed as described by Lueptow. The discriminative index for the drug-treated groups was compared to that of the vehicle group by use of the Kruskal–Wallis test. The discriminative index is the ratio of time spent exploring the novel object divided by the sum of the time spent exploring the novel object and a familiar object in the choice trial.
# [1] = system: extracellular neurotransmitter levels in ventral hippocampus; assay: In vivo microdialysis of neurotransmitters in ventral hippocampus; design: species or system rat
# Method: The microdialysis experiments were conducted using Pronexus AB, Bromma, Sweden (ethical permit N24/14) on awake, freely moving Sprague Dawley rats (n = 6, 7–8 weeks old from Janvier Labs, Le Genest-Saint-Isle, France) as previously described. On the day of the microdialysis experiment, the rat was in its home cage and placed into a frame of a single-beam locomotor activity monitoring system. Locomotor activity of rats undergoing microdialysis sampling was recorded simultaneously in 5-min intervals. A microdialysis probe (Eicom A-I: 0.22 mm O.D., 4 mm membrane length with 50 kDa cut-off) was inserted into the guide cannula of the awake rat. The probe was connected with fluorinated ethylene propylene (FEP) tubing (0.1 mm I.D.) to the balancing arm of the CMA 120 system for freely moving animals (CMA/Microdialysis) equipped with a 2-channel swivel (Microbiotech/se AB, Stockholm, Sweden). […] Concentrations of acetylcholine (ACh) and glutamate (Glu) in the microdialysis samples were measured using ultra-high performance liquid chromatography tandem mass spectrometry (UHPLC-MS/MS), whereas the levels of the monoamines dopamine (DA), noradrenaline (NA), and […] (5-HT) in the microdialysates were measured using ion-exchange narrow bore column liquid chromatography with electrochemical detection as described elsewhere. […]
# T1 sequence (P04629 33-796): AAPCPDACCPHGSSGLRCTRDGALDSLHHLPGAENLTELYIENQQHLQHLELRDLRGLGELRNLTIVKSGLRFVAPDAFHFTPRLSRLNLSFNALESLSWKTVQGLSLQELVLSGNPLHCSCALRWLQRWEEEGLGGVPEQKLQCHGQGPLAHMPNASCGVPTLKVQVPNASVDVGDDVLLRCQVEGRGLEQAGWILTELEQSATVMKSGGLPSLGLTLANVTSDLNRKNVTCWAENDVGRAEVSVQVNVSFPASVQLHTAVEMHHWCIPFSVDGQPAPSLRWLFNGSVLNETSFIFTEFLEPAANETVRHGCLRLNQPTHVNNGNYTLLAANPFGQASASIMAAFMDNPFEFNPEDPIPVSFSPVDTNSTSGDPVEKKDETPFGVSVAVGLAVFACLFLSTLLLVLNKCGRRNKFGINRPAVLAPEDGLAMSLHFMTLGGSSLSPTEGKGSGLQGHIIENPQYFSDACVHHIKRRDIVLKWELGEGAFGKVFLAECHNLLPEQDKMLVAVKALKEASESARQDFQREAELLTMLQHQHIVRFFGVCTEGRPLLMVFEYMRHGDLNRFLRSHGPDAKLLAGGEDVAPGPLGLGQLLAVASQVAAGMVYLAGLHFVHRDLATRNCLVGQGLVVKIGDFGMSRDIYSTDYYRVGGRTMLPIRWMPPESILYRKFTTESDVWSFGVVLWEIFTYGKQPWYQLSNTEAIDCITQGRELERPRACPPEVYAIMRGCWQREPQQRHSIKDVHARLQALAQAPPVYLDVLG
smiles,measurement,setting,value
"Cc1cc(-n2c(=O)[nH]c(=O)n(C)c2=O)ccc1Oc1ccc(S(=O)(=O)C(F)(F)F)cc1 [ACD855, Toltrazuril-sulfone]",modulation of TrkA activity over NGF dose-response curve,"TrkA; 0.3, 1 and 3 µM compound with a wide range of NGF concentrations",positively modulated TrkA activity
same,EC50,TrkA; PathHunter cell-based assay,1900 nM
same,TrkA Effect (efficacy),TrkA; PathHunter cell-based assay,144%
same,activation of TrkA-receptor by compound itself,"TrkA; without ligand, 100% = 30 ng/mL ligand",45%
same,time with novel object vs familiar object after scopolamine,Wistar rats,spent significantly more time with the novel object
same,increase in extracellular ACh levels in vHPC,"[1]; local infusion of 30 µM over four hours, freely moving rats, vs vehicle (aCSF)",40%
same,"levels of glutamate, noradrenaline, dopamine and 5-hydroxytryptamine","[1]; local infusion of 30 µM, vHPC",not affected
